Measured values from ChEMBL document CHEMBL1124423, “Synthesis of highly mu and delta opioid receptor selective peptides containing a photoaffinity group” (J Med Chem, 1989).

How the values were obtained:
Cavia porcellus [1] = species: Cavia porcellus; experiment: Inhibition of response by delta receptor selective analogue at 10000 nM was assessed in Guinea pig ileum assay; format: functional
Cavia porcellus [2] = species: Cavia porcellus; experiment: Inhibition of response by delta receptor selective analogue at 300 nM was assessed in Guinea pig ileum assay; format: functional
Cavia porcellus [3] = species: Cavia porcellus; experiment: Concentration that reduced the response by 50% by delta receptor selective analogue was assessed in Guinea pig ileum assay; format: functional
Mus musculus [4] = species: Mus musculus; experiment: Concentration that reduced the response by 50% by delta selective analogue was assessed in mouse vas deferens assay; format: functional
[5] = target: Delta-type opioid receptor (Rattus norvegicus, UniProt P33533); experiment: Binding potency of compound in competition with [3H]DPDPE for Opioid receptor delta 1 tested in rat brain membrane; format: cell membranes
Mu-type opioid receptor = Mu-type opioid receptor (Rattus norvegicus, UniProt P33535); experiment: Binding potency of compound in competition with [3H]CTOP for Opioid receptor mu 1 tested in rat brain membrane; format: cell membranes
Mus musculus [6] = species: Mus musculus; experiment: Concentration that reduced the response by 50% by delta selective analogue was assessed in mouse vas deferens assay; NA is no activity at 10e-5 M; format: functional
Cavia porcellus [7] = species: Cavia porcellus; experiment: Affinity of mu receptor selective analogue in Guinea pig ileum assay expressed as pA2; format: functional; settings: read-out: pA2 (converted)
Mus musculus [8] = species: Mus musculus; experiment: Concentration that reduced the response by 50% by delta receptor selective analogue was assessed in mouse vas deferens assay; NA is no activity at 10e-5 M; format: functional
[9] = target: Opioid receptors; mu & delta (Homo sapiens) (UniProt P41143+P35372); experiment: Selectivity ratio for binding to mu vs delta opioid receptor; format: protein assay
Cavia porcellus [10] = species: Cavia porcellus; experiment: Inhibition of response by delta receptor selective analogue at 3000 nM was assessed in Guinea pig ileum assay; format: functional

Chain of Mu-type opioid receptor (P33535 whole entry): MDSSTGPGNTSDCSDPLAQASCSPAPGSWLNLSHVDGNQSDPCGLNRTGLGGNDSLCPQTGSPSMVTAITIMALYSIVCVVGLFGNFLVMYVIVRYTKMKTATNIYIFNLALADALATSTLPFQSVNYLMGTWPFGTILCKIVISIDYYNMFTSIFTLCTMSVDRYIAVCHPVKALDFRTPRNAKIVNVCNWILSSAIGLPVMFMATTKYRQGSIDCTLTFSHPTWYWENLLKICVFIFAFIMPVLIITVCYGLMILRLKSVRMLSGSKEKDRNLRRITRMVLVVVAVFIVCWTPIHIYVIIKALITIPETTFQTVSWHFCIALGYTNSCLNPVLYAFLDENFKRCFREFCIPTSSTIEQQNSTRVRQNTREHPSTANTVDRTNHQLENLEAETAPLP
Chain of Opioid receptors; mu & delta (Homo sapiens) (P35372 whole entry, looked up): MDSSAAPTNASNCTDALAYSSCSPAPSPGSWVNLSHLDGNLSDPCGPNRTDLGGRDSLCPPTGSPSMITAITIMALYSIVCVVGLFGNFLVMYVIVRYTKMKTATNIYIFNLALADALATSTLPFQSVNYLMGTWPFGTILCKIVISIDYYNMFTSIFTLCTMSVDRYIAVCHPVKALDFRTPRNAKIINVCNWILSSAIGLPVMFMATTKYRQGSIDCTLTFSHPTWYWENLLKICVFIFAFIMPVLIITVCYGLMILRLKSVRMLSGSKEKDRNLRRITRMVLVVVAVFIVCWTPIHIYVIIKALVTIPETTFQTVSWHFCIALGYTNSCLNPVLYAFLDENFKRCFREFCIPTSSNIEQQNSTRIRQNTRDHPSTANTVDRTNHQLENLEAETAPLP
Chain of Opioid receptors; mu & delta (Homo sapiens) (P41143 whole entry, looked up): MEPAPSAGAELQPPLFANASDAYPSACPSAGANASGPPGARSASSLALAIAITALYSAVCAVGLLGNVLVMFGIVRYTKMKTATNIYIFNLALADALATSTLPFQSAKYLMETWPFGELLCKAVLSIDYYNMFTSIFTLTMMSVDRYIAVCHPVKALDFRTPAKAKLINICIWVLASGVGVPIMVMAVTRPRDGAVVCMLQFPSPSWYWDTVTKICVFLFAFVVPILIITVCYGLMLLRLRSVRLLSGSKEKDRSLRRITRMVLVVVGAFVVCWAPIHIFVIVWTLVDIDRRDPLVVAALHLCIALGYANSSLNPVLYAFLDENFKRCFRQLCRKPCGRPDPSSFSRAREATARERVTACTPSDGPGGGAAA
Chain of Delta-type opioid receptor (P33533 whole entry): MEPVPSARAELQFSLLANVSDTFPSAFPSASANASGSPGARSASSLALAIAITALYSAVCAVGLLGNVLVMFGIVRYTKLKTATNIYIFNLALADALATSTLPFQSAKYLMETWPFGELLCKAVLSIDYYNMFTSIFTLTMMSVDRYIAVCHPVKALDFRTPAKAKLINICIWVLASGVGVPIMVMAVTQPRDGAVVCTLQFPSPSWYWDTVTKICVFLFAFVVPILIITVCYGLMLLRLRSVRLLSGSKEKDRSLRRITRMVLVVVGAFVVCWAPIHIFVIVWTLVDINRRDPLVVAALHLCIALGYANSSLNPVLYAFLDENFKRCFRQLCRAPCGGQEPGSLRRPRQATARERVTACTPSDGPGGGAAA

## CC1(C)SSC(C)(C)[C@@H](NC(=O)[C@@H](N)Cc2ccc(O)cc2)C(=O)NCC(=O)N[C@@H](Cc2ccc(N=[N+]=[N-])cc2)C(=O)N[C@H]1C(=O)O [listing 1 of 2 here]
Cavia porcellus [1]
  inhibition at 10 µM: 6%

## C[C@@H](O)[C@H](NC(=O)[C@H]1NC(=O)[C@H]([C@@H](C)O)NC(=O)[C@H](CCCCN)NC(=O)[C@@H](Cc2c[nH]c3ccccc23)NC(=O)[C@H](Cc2ccc(N=[N+]=[N-])cc2)NC(=O)[C@@H](NC(=O)[C@H](N)Cc2ccccc2)CSSC1(C)C)C(N)=O [listing 1 of 2 here]
Cavia porcellus [2]
  inhibition at 0.3 µM: 8%

## CC1(C)SSC(C)(C)[C@@H](NC(=O)[C@@H](N)Cc2ccc(O)cc2)C(=O)NCC(=O)N[C@@H](Cc2ccc(N)cc2)C(=O)N[C@H]1C(=O)O
Cavia porcellus [3]
  IC50: > 10000 nM
Mus musculus [4]
  IC50: 138 nM

## C[C@@H](O)[C@H](NC(=O)[C@H]1NC(=O)[C@H]([C@@H](C)O)NC(=O)[C@H](CCCCN)NC(=O)[C@@H](Cc2c[nH]c3ccccc23)NC(=O)[C@H](Cc2ccc(N=[N+]=[N-])cc2)NC(=O)[C@@H](NC(=O)[C@H](N)Cc2ccccc2)CSSC1(C)C)C(N)=O [listing 2 of 2 here]
[5]
  IC50: 20000 nM
Mu-type opioid receptor
  IC50: 49 nM
Mus musculus [6]
  IC50: Not Active

## CC1(C)SSC(C)(C)[C@@H](NC(=O)[C@@H](N)Cc2ccc(O)cc2)C(=O)NCC(=O)N[C@@H](Cc2ccccc2)C(=O)N[C@H]1C(=O)O
Mus musculus [4]
  IC50: 4.3 nM

## C[C@@H](O)[C@H](NC(=O)[C@H]1NC(=O)[C@H]([C@@H](C)O)NC(=O)[C@H](CCCCN)NC(=O)[C@@H](Cc2c[nH]c3ccccc23)NC(=O)[C@H](Cc2ccc(O)cc2)NC(=O)[C@@H](NC(=O)[C@H](N)Cc2ccccc2)CSSC1(C)C)C(=O)O
Cavia porcellus [7]
  Kb: 79.4 nM
Mus musculus [8]
  IC50: Not Active
[5]
  IC50: 8400 nM
Mu-type opioid receptor
  IC50: 3 nM

## C[C@@H](O)[C@H](NC(=O)[C@H]1NC(=O)[C@H]([C@@H](C)O)NC(=O)[C@H](CCCCN)NC(=O)[C@@H](Cc2c[nH]c3ccccc23)NC(=O)[C@H](Cc2ccc(N)cc2)NC(=O)[C@@H](NC(=O)[C@H](N)Cc2ccccc2)CSSC1(C)C)C(N)=O [listing 1 of 2 here]
[5]
  IC50: > 10000 nM
Mu-type opioid receptor
  IC50: 500 nM
Mus musculus [6]
  IC50: Not Active

## C[C@@H](O)[C@H](NC(=O)[C@@H]1NC(=O)[C@H]([C@@H](C)O)NC(=O)[C@@H](CCCCN)NC(=O)[C@@H](Cc2c[nH]c3ccccc23)NC(=O)[C@@H](Cc2ccc(N)cc2)NC(=O)[C@H](NC(=O)[C@@H](N)Cc2ccccc2)CSSC1(C)C)C(N)=O
[9]
  Ratio: > 20

## CC1(C)SSC(C)(C)[C@@H](NC(=O)[C@@H](N)Cc2ccc(O)cc2)C(=O)NCC(=O)N[C@@H](Cc2ccc(N=[N+]=[N-])cc2)C(=O)N[C@H]1C(=O)O [listing 2 of 2 here]
Mus musculus [4]
  IC50: 9.5 nM

## C[C@@H](O)[C@H](NC(=O)[C@H]1NC(=O)[C@H]([C@@H](C)O)NC(=O)[C@H](CCCCN)NC(=O)[C@@H](Cc2c[nH]c3ccccc23)NC(=O)[C@H](Cc2ccc(N)cc2)NC(=O)[C@@H](NC(=O)[C@H](N)Cc2ccccc2)CSSC1(C)C)C(N)=O [listing 2 of 2 here]
Cavia porcellus [10]
  inhibition at 3 µM: 5%

## C[C@@H](O)[C@H](NC(=O)[C@@H]1NC(=O)[C@H]([C@@H](C)O)NC(=O)[C@@H](CCCCN)NC(=O)[C@@H](Cc2c[nH]c3ccccc23)NC(=O)[C@@H](Cc2ccc(O)cc2)NC(=O)[C@H](NC(=O)[C@@H](N)Cc2ccccc2)CSSC1(C)C)C(=O)O
[9]
  Ratio: 3230

## C[C@@H](O)[C@H](NC(=O)[C@@H]1NC(=O)[C@H]([C@@H](C)O)NC(=O)[C@@H](CCCCN)NC(=O)[C@@H](Cc2c[nH]c3ccccc23)NC(=O)[C@@H](Cc2ccc(N=[N+]=[N-])cc2)NC(=O)[C@H](NC(=O)[C@@H](N)Cc2ccccc2)CSSC1(C)C)C(N)=O
[9]
  Ratio: 412
